Data taken from US6362369B1, “Phthalic acid diamide derivatives fluorine-containing aniline compounds as starting material, agricultural and horticultural insecticides, and a method for application of the insecticides” (Nihon Nohyaku Co., Ltd., priority 1997, dated 2002).

Experiments:
Type in all cases: in vivo
[1] = test system: diamondback moth (Plutella xylostella); experiment: Insecticidal effect on diamondback moth (Test Example 1); conditions: diamondback moth; judged by the criterion of Test Example 1
Procedure, shortened: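 Chinese cabbage seedlings carrying eggs laid by released adult moths were immersed in treatment, air-dried and held at 25° C. Hatched insects were counted six days after immersion, and mortality was calculated and scored against a fixed criterion. Three replicate groups of 10 insects were used.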

[2] = test system: rice leafroller (Cnaphalocrocis medinalis); experiment: Insecticidal effect on rice leafroller (Test Example 3); conditions: 500 ppm, rice lamina dip, third-instar larvae of rice leafroller, 4 days after inoculation, 25° C., humidity 70%
Procedure, shortened: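 Groups of 10 third-instar larvae, in triplicate, are placed on air-dried lamina resting on wet filter paper. Incubation runs four days at 25° C with 70% humidity before survivors and dead are tallied.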

[3] = test system: common cutworm (Spodoptera Litura); experiment: Insecticidal effect on common cutworm (Test Example 2); conditions: 500 ppm, cabbage leaf dip, second-instar larvae of common cutworm, 8 days after inoculation, 25° C.
Procedure, shortened: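 Air-dried treated material was placed in a closed dish with second-instar larvae and held at 25° C. Dead and live insects were counted eight days after inoculation, and mortality was calculated and scored against a fixed insecticidal-effect criterion. Three replicate groups of 10 insects were used.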

C#CC(C)(C)NC(=O)c1c(I)cccc1C(=O)Nc1ccc(OC(F)F)cc1C [compound 1635]
Insecticidal effect (Test Example 1), judged from mortality [1]: A (100) | Insecticidal effect (Test Example 3), judged from mortality [2]: A (100) | Insecticidal effect (Test Example 2), judged from mortality [3]: A (100)

CC(C)NC(=O)c1c(I)cccc1C(=O)Nc1ccc2nc(C(F)(F)C(F)(F)C(F)(F)F)oc2c1 [compound 1636]
Insecticidal effect (Test Example 1), judged from mortality [1]: A (100) | Insecticidal effect (Test Example 3), judged from mortality [2]: A (100) | Insecticidal effect (Test Example 2), judged from mortality [3]: D (79-50)

CC(C)NC(=O)c1c(I)cccc1C(=O)Nc1ccc2oc(C(F)(F)C(F)(F)C(F)(F)F)nc2c1 [compound 1637]
Insecticidal effect (Test Example 1), judged from mortality [1]: A (100) | Insecticidal effect (Test Example 3), judged from mortality [2]: A (100) | Insecticidal effect (Test Example 2), judged from mortality [3]: A (100)

CC(C)NC(=O)c1c(Cl)cccc1C(=O)Nc1ccc2oc(C(F)(F)C(F)(F)C(F)(F)F)nc2c1 [compound 1638]
Insecticidal effect (Test Example 1), judged from mortality [1]: A (100) | Insecticidal effect (Test Example 3), judged from mortality [2]: A (100) | Insecticidal effect (Test Example 2), judged from mortality [3]: A (100)

CC(C)(C)NC(=O)c1c(I)cccc1C(=O)Nc1ccc2oc(C(F)(F)C(F)(F)C(F)(F)F)nc2c1 [compound 1639]
Insecticidal effect (Test Example 1), judged from mortality [1]: A (100) | Insecticidal effect (Test Example 3), judged from mortality [2]: A (100) | Insecticidal effect (Test Example 2), judged from mortality [3]: A (100)

CC(C)NC(=O)c1c(Cl)cccc1C(=O)Nc1ccc2c(c1Cl)OC(F)(F)C(F)(F)O2 [compound 1642]
Insecticidal effect (Test Example 1), judged from mortality [1]: A (100) | Insecticidal effect (Test Example 3), judged from mortality [2]: A (100) | Insecticidal effect (Test Example 2), judged from mortality [3]: A (100)

CC(C)(C)NC(=O)c1c(I)cccc1C(=O)Nc1ccc2c(c1Cl)OC(F)(F)C(F)(F)O2 [compound 1644]
Insecticidal effect (Test Example 1), judged from mortality [1]: A (100) | Insecticidal effect (Test Example 3), judged from mortality [2]: A (100) | Insecticidal effect (Test Example 2), judged from mortality [3]: A (100)

CC(C)(C)NC(=O)c1c(I)cccc1C(=O)Nc1cc2c(cc1Cl)OC(F)(F)C(F)(F)O2 [compound 1645]
Insecticidal effect (Test Example 1), judged from mortality [1]: A (100) | Insecticidal effect (Test Example 3), judged from mortality [2]: A (100) | Insecticidal effect (Test Example 2), judged from mortality [3]: A (100)

Cc1cc(C(F)(F)C(F)(F)F)ccc1NC(=O)c1cccc(I)c1C(=O)NC(C)(C)CCl [compound 1646]
Insecticidal effect (Test Example 1), judged from mortality [1]: A (100) | Insecticidal effect (Test Example 3), judged from mortality [2]: A (100) | Insecticidal effect (Test Example 2), judged from mortality [3]: A (100)

Cc1cc(C(F)(F)C(F)(F)F)ccc1NC(=O)c1cccc(I)c1C(=O)NC(C)(C)CBr [compound 1647]
Insecticidal effect (Test Example 1), judged from mortality [1]: A (100) | Insecticidal effect (Test Example 3), judged from mortality [2]: A (100) | Insecticidal effect (Test Example 2), judged from mortality [3]: A (100)

Cc1cc(C(F)(F)C(F)(F)F)ccc1NC(=O)c1cccc(Cl)c1C(=O)NC(C)(C)C#Cc1ccc(Br)cn1 [compound 1649]
Insecticidal effect (Test Example 1), judged from mortality [1]: A (100) | Insecticidal effect (Test Example 3), judged from mortality [2]: A (100) | Insecticidal effect (Test Example 2), judged from mortality [3]: A (100)

Cc1cc(C(F)(F)C(F)(F)F)ccc1NC(=O)c1cccc(Cl)c1C(=O)NC(C)(C)C#Cc1ccc(F)cc1F [compound 1650]
Insecticidal effect (Test Example 1), judged from mortality [1]: A (100) | Insecticidal effect (Test Example 3), judged from mortality [2]: A (100) | Insecticidal effect (Test Example 2), judged from mortality [3]: A (100)

Cc1cc(C(F)(F)C(F)(F)F)ccc1NC(=O)c1cccc(Cl)c1C(=O)NC(C)CF (stereo not drawn) [compound 1651]
Insecticidal effect (Test Example 1), judged from mortality [1]: A (100) | Insecticidal effect (Test Example 3), judged from mortality [2]: A (100) | Insecticidal effect (Test Example 2), judged from mortality [3]: A (100)

Cc1cc(C(F)(F)C(F)(F)F)ccc1NC(=O)c1cccc(Cl)c1C(=O)NC(C)CBr (stereo not drawn) [compound 1652]
Insecticidal effect (Test Example 1), judged from mortality [1]: A (100) | Insecticidal effect (Test Example 3), judged from mortality [2]: A (100) | Insecticidal effect (Test Example 2), judged from mortality [3]: A (100)

Cc1cc(C(F)(F)C(F)(F)F)c(Cl)cc1NC(=O)c1cccc(I)c1C(=O)NC(C)C [compound 1653]
Insecticidal effect (Test Example 1), judged from mortality [1]: A (100) | Insecticidal effect (Test Example 3), judged from mortality [2]: A (100) | Insecticidal effect (Test Example 2), judged from mortality [3]: A (100)

Cc1cc(C(F)(F)C(F)(F)F)c(Cl)cc1NC(=O)c1cccc(I)c1C(=O)NC(C)(C)C [compound 1654]
Insecticidal effect (Test Example 1), judged from mortality [1]: A (100) | Insecticidal effect (Test Example 3), judged from mortality [2]: A (100) | Insecticidal effect (Test Example 2), judged from mortality [3]: A (100)

CCc1cc(C(F)(C(F)(F)F)C(F)(F)F)ccc1NC(=O)c1cccc(I)c1C(=O)NC(C)C [compound 1714]
Insecticidal effect (Test Example 1), judged from mortality [1]: A (100) | Insecticidal effect (Test Example 3), judged from mortality [2]: A (100) | Insecticidal effect (Test Example 2), judged from mortality [3]: A (100)

COc1cc(C(F)(C(F)(F)F)C(F)(F)F)ccc1NC(=O)c1cccc(I)c1C(=O)NC(C)C [compound 1715]
Insecticidal effect (Test Example 1), judged from mortality [1]: A (100) | Insecticidal effect (Test Example 3), judged from mortality [2]: A (100) | Insecticidal effect (Test Example 2), judged from mortality [3]: A (100)

Cc1cc(C(F)(C(F)(F)F)C(F)(F)F)cc(C)c1NC(=O)c1cccc(I)c1C(=O)NC(C)C [compound 1716]
Insecticidal effect (Test Example 1), judged from mortality [1]: A (100) | Insecticidal effect (Test Example 3), judged from mortality [2]: A (100) | Insecticidal effect (Test Example 2), judged from mortality [3]: A (100)

Cc1cc(C(F)(F)C(F)(F)F)cc(C)c1NC(=O)c1cccc(I)c1C(=O)NC(C)C [compound 1717]
Insecticidal effect (Test Example 1), judged from mortality [1]: A (100) | Insecticidal effect (Test Example 3), judged from mortality [2]: A (100) | Insecticidal effect (Test Example 2), judged from mortality [3]: A (100)

CC(C)NC(=O)c1c(I)cccc1C(=O)Nc1ccc(C(F)(C(F)(F)F)C(F)(F)F)cc1Cl [compound 1722]
Insecticidal effect (Test Example 1), judged from mortality [1]: A (100) | Insecticidal effect (Test Example 3), judged from mortality [2]: A (100) | Insecticidal effect (Test Example 2), judged from mortality [3]: A (100)

CC(C)(C)NC(=O)c1c(I)cccc1C(=O)Nc1ccc(C(F)(C(F)(F)F)C(F)(F)F)cc1Cl [compound 1723]
Insecticidal effect (Test Example 1), judged from mortality [1]: A (100) | Insecticidal effect (Test Example 3), judged from mortality [2]: A (100) | Insecticidal effect (Test Example 2), judged from mortality [3]: A (100)

CC(C)NC(=O)c1c(I)cccc1C(=O)Nc1ccc2c(c1Cl)OC(F)C(F)(F)O2 (stereo not drawn) [compound 1733]
Insecticidal effect (Test Example 1), judged from mortality [1]: A (100) | Insecticidal effect (Test Example 3), judged from mortality [2]: A (100) | Insecticidal effect (Test Example 2), judged from mortality [3]: A (100)

CON=C(C)c1ccc(NC(=O)c2cccc(I)c2C(=O)NC(C)C)cc1 [compound 1737]
Insecticidal effect (Test Example 1), judged from mortality [1]: A (100) | Insecticidal effect (Test Example 3), judged from mortality [2]: A (100) | Insecticidal effect (Test Example 2), judged from mortality [3]: C (89-80)

CC(C)(C)NC(=O)c1c(I)cccc1C(=O)Nc1ccc(Cl)c2c1OC(F)(F)O2 [compound 1747]
Insecticidal effect (Test Example 1), judged from mortality [1]: A (100) | Insecticidal effect (Test Example 3), judged from mortality [2]: A (100) | Insecticidal effect (Test Example 2), judged from mortality [3]: C (89-80)

CC(C)NC(=O)c1c(I)cccc1C(=O)Nc1ccc2nc(C(C)C)sc2c1 [compound 1764]
Insecticidal effect (Test Example 1), judged from mortality [1]: A (100) | Insecticidal effect (Test Example 3), judged from mortality [2]: A (100) | Insecticidal effect (Test Example 2), judged from mortality [3]: A (100)

CC(C)NC(=O)c1c(I)cccc1C(=O)Nc1ccc(-c2csc(C(F)(F)F)n2)cc1 [compound 1765]
Insecticidal effect (Test Example 1), judged from mortality [1]: A (100) | Insecticidal effect (Test Example 3), judged from mortality [2]: A (100) | Insecticidal effect (Test Example 2), judged from mortality [3]: A (100)

CSc1cc(NC(=O)c2cccc(I)c2C(=O)NC(C)C)ccc1C(F)(C(F)(F)F)C(F)(F)F [compound 1766]
Insecticidal effect (Test Example 1), judged from mortality [1]: A (100) | Insecticidal effect (Test Example 3), judged from mortality [2]: A (100) | Insecticidal effect (Test Example 2), judged from mortality [3]: A (100)

Cc1cc(C(F)(C(F)(F)F)C(F)(F)F)ccc1NC(=O)c1cccc(I)c1C(=O)NC(C)c1ccccn1 (stereo not drawn) [compound 1773]
Insecticidal effect (Test Example 1), judged from mortality [1]: A (100) | Insecticidal effect (Test Example 3), judged from mortality [2]: A (100) | Insecticidal effect (Test Example 2), judged from mortality [3]: A (100)

Cc1cc(C(F)(F)C(F)(F)F)ccc1NC(=O)c1cccc(I)c1C(=O)NC(C)c1ccccn1 (stereo not drawn) [compound 1777]
Insecticidal effect (Test Example 1), judged from mortality [1]: A (100) | Insecticidal effect (Test Example 3), judged from mortality [2]: A (100) | Insecticidal effect (Test Example 2), judged from mortality [3]: A (100)

Cc1cc(C(F)(C(F)(F)F)C(F)(F)F)ccc1NC(=O)c1cccc(I)c1C(=O)NC(C)c1ccco1 (stereo not drawn) [compound 1799]
Insecticidal effect (Test Example 1), judged from mortality [1]: A (100) | Insecticidal effect (Test Example 3), judged from mortality [2]: A (100) | Insecticidal effect (Test Example 2), judged from mortality [3]: A (100)

Cc1cc(C(F)(C(F)(F)F)C(F)(F)F)ccc1NC(=O)c1cccc(I)c1C(=O)NC(C)c1cccs1 (stereo not drawn) [compound 1800]
Insecticidal effect (Test Example 1), judged from mortality [1]: A (100) | Insecticidal effect (Test Example 3), judged from mortality [2]: A (100) | Insecticidal effect (Test Example 2), judged from mortality [3]: A (100)

Cc1cc(C(F)(F)C(F)(F)F)ccc1NC(=O)c1cccc(C(F)(F)F)c1C(=O)NC(C)C [compound 1801]
Insecticidal effect (Test Example 1), judged from mortality [1]: A (100) | Insecticidal effect (Test Example 3), judged from mortality [2]: A (100) | Insecticidal effect (Test Example 2), judged from mortality [3]: A (100)

Cc1cc(C(F)(F)C(F)(F)F)ccc1NC(=O)c1cccc([S+]([O-])C(F)(F)F)c1C(=O)NC(C)C (stereo not drawn) [compound 1803]
Insecticidal effect (Test Example 1), judged from mortality [1]: A (100) | Insecticidal effect (Test Example 3), judged from mortality [2]: A (100) | Insecticidal effect (Test Example 2), judged from mortality [3]: A (100)
